How the values were obtained:
Type in all cases: binding
[1] = biological target: T1, TYK2 (Homo sapiens, UniProt P29597); assay: Kinobeads assay with immunodetection, TYK2; conditions: for IC50: Kinobeads assay, mixed Molt4/Ramos lysate, read-out: Inhibition values (IC50) Tyk2
T1 construct: endogenous in cells; host or cells: Molt4 (ATCC CRL-1582) and Ramos (ATCC CRL-1596) cells; mixed lysate 1:2
Summary of the method: (§1)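 Lysates of Molt4 and Ramos cells, combined 1:2 and diluted to 10 mg/mL in Tris pH 7.4 buffer with 0.8% NP40, are incubated for 3 h in the cold with compound and the affinity matrix. Beads are washed, eluted in SDS buffer, and kinases are quantified by infrared immunodetection to give IC50s.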

[2] = biological target: T2, JAK1 (Homo sapiens, UniProt P23458); assay: Kinobeads assay with immunodetection, JAK1; conditions: for IC50: Kinobeads assay, mixed Molt4/Ramos lysate, read-out: Inhibition values (IC50) JAK1
T2 construct: endogenous in cells; host or cells: Molt4 (ATCC CRL-1582) and Ramos (ATCC CRL-1596) cells; mixed lysate 1:2
Summary of the method: as §1

[3] = biological target: T3, JAK3 (Homo sapiens, UniProt P52333); assay: Kinobeads assay with immunodetection, JAK3; conditions: for IC50: Kinobeads assay, mixed Molt4/Ramos lysate, read-out: Inhibition values (IC50) JAK3
T3 construct: endogenous in cells; host or cells: Molt4 (ATCC CRL-1582) and Ramos (ATCC CRL-1596) cells; mixed lysate 1:2
T3 sequence (P52333 1-1124): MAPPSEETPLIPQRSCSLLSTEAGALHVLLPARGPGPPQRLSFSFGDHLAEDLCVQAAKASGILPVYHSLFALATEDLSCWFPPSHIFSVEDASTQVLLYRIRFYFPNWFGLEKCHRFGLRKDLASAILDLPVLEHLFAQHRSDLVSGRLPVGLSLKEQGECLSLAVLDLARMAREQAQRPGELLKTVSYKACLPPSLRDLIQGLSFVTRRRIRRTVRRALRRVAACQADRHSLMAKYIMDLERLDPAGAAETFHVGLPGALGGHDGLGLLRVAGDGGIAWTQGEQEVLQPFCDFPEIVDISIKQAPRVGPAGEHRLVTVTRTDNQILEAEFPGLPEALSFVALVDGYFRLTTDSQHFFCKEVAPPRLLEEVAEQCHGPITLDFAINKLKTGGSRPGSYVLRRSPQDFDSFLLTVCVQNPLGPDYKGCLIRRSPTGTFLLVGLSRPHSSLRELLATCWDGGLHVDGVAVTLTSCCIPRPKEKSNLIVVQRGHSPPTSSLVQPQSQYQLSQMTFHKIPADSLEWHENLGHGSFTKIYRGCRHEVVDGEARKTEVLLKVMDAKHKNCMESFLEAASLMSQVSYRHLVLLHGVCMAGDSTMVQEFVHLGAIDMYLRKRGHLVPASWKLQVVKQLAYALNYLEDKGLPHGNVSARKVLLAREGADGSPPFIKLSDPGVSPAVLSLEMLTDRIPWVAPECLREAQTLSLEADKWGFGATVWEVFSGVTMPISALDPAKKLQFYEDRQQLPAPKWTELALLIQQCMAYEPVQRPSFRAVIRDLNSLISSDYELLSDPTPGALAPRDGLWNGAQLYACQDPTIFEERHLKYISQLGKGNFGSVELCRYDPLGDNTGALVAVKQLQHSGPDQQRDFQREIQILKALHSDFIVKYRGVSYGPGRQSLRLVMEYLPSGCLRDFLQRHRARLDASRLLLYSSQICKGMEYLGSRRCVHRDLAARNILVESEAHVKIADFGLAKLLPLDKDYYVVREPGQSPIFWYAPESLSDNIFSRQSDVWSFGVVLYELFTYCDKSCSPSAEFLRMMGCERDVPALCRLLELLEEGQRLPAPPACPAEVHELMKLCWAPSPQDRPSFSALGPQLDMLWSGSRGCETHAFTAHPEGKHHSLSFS
Summary of the method: as §1

[4] = biological target: T4, JAK2 (Homo sapiens, UniProt O60674); assay: Kinobeads assay with immunodetection, JAK2; conditions: mixed Molt4/Ramos lysate, read-out: Inhibition values (IC50) JAK2
T4 construct: endogenous in cells; host or cells: Molt4 (ATCC CRL-1582) and Ramos (ATCC CRL-1596) cells; mixed lysate 1:2
Summary of the method: as §1

T2 sequence (P23458 whole entry): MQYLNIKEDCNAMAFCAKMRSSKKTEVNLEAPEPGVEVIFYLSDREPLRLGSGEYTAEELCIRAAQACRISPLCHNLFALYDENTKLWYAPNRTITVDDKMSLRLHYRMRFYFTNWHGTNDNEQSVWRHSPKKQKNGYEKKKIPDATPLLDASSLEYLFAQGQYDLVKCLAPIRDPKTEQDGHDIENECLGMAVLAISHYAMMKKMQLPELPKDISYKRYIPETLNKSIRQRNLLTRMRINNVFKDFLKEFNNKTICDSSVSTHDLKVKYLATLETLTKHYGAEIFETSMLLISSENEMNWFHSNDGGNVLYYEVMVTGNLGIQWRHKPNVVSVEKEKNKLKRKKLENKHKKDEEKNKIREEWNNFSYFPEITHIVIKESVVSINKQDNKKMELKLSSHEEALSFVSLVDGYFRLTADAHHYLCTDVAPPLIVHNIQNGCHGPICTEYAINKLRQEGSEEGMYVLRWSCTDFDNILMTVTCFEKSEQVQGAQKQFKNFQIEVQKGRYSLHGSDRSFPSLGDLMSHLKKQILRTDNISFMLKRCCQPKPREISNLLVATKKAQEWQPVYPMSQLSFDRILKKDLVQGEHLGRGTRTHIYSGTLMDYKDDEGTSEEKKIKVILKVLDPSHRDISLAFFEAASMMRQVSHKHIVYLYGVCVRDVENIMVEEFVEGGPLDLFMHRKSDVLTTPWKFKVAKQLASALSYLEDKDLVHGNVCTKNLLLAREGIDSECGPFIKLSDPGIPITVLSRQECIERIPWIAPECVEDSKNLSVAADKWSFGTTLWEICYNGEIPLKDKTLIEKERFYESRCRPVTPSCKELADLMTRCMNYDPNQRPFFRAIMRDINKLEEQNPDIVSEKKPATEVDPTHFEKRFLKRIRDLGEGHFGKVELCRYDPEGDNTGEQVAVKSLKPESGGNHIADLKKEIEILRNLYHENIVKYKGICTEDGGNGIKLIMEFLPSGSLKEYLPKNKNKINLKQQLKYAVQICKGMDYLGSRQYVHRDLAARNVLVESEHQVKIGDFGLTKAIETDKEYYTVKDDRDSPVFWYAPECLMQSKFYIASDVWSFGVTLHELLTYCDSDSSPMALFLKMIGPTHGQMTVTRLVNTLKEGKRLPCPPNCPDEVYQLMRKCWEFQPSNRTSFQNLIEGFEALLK
T1 sequence (P29597 whole entry): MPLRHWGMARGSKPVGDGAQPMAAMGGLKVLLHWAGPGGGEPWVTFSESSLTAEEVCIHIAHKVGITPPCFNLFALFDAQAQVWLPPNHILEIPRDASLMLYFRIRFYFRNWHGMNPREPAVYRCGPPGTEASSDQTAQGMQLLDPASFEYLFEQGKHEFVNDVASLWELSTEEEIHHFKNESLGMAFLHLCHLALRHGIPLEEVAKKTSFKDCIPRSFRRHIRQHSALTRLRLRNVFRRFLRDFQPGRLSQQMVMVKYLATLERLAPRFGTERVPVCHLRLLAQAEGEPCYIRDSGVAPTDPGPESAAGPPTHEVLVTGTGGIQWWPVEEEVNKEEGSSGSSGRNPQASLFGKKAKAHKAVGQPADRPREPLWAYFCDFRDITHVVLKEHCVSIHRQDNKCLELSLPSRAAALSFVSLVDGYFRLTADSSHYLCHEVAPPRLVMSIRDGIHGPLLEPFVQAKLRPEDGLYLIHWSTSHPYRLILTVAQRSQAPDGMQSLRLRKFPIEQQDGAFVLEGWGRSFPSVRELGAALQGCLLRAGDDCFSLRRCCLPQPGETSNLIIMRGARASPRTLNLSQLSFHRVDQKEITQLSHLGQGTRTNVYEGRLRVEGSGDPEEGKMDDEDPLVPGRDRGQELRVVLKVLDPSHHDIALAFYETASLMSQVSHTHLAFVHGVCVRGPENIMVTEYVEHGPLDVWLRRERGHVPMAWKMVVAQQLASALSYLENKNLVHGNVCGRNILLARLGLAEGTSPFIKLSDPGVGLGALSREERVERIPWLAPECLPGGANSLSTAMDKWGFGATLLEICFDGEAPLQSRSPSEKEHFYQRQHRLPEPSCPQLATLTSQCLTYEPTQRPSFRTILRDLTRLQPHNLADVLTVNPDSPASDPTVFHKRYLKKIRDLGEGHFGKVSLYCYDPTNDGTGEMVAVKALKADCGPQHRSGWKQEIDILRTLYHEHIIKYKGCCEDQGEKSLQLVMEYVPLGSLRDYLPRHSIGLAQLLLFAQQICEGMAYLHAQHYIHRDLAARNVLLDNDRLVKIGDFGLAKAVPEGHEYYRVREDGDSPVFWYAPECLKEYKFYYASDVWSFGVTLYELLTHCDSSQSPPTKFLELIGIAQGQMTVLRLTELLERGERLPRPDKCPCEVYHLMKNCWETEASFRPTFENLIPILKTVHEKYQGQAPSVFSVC
T4 sequence (O60674 whole entry): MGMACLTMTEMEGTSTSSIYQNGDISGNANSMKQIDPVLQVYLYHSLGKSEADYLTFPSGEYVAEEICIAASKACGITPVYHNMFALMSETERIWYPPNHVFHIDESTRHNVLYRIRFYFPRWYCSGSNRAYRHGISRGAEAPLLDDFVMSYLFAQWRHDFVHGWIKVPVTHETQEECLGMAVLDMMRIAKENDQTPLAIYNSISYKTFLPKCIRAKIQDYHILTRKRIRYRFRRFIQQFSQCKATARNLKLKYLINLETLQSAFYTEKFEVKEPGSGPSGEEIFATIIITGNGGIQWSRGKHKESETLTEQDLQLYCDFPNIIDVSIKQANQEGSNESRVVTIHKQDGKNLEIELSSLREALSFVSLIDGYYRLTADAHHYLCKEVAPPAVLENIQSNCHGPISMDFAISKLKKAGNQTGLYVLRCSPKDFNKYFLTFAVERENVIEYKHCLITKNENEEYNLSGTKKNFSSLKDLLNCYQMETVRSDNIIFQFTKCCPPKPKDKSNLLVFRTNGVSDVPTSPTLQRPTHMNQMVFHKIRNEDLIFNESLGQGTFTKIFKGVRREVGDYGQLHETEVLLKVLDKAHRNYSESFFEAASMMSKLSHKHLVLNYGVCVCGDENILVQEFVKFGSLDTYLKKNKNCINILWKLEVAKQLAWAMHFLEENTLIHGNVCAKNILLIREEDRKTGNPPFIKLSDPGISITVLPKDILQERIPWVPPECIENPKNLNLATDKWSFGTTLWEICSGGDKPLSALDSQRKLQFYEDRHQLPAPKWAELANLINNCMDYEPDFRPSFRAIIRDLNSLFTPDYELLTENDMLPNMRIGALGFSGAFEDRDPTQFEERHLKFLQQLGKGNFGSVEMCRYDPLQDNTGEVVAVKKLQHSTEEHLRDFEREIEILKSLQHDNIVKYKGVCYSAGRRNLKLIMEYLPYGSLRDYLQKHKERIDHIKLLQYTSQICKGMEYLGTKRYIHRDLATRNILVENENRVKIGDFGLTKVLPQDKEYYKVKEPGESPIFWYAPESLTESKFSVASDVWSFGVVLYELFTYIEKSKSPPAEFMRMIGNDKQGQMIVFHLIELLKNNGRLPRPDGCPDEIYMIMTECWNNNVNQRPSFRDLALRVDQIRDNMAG

SMILES	IC50 [1] [nM]	Selectivity ratio over JAK2, Tyk2 [1]	IC50 [2] [nM]	IC50 [3] [nM]	IC50 [4] [nM]	Selectivity ratio over JAK2, JAK3 [3]	Selectivity ratio over JAK2, JAK1 ([2]; JAK1 over JAK2)
CC(=O)N1CCCC[C@@H]1CNc1nc(Nc2cnn(C)c2)ncc1Cl [Example 39, (R)-1-(2-(((5-chloro-2-((1-methyl-1H-pyrazol-4-yl)amino)pyrimidin-4-yl)amino)methyl)piperidin-1-yl)ethanone]	< 100	Tyk2 = 8	100 to 1000	100 to 1000	1000 to 10000		
CC(=O)N1CCCC[C@@H]1CNc1nc(Nc2cnn(CCO)c2)ncc1Cl [Example 40, (R)-1-(2-(((5-chloro-2-((1-(2-hydroxyethyl)-1H-pyrazol-4-yl)amino)pyrimidin-4-yl)amino)methyl)piperidin-1-yl)ethanone]	< 100	Tyk2 = 10	100 to 1000	< 100	100 to 1000		
C=CC(=O)N1CCCC[C@@H]1CNc1nc(Nc2cnn(C)c2)ncc1Cl [Example 41, (R)-1-(2-(((5-chloro-2-((1-methyl-1H-pyrazol-4-yl)amino)pyrimidin-4-yl)amino)methyl)piperidin-1-yl)prop-2-en-1-one]	100 to 1000	Tyk2 = 6	100 to 1000	100 to 1000	100 to 1000		
C=CC(=O)N1CCCC[C@@H]1CNc1nc(Nc2cnn(CCO)c2)ncc1Cl [Example 42, (R)-1-(2-(((5-chloro-2-((1-(2-hydroxyethyl)-1H-pyrazol-4-yl)amino)pyrimidin-4-yl)amino)methyl)piperidin-1-yl)prop-2-en-1-one]	< 100	Tyk2 = 4	100 to 1000	100 to 1000	100 to 1000		
Cn1cc(Nc2ncc(Cl)c(NC[C@H]3CCCCN3S(C)(=O)=O)n2)cn1 [Example 43, (R)-5-chloro-N^2-(1-methyl-1H-pyrazol-4-yl)-N^4-((1-(methylsulfonyl)piperidin-2-yl)methyl)pyrimidine-2,4-diamine]	< 100		100 to 1000	< 100	100 to 1000	Jak3 = 18	
CS(=O)(=O)N1CCCC[C@@H]1CNc1nc(Nc2cnn(CCO)c2)ncc1Cl [Example 44, (R)-2-(4-((5-chloro-4-(((1-(methylsulfonyl)piperidin-2-yl)methyl)amino)pyrimidin-2-yl)amino)-1H-pyrazol-1-yl)ethanol]	100 to 1000		100 to 1000	< 100	100 to 1000	JAK3 = 20	
C=CS(=O)(=O)N1CCCC[C@@H]1CNc1nc(Nc2cnn(C)c2)ncc1Cl [Example 45, (R)-5-chloro-N^2-(1-methyl-1H-pyrazol-4-yl)-N^4-((1-(vinylsulfonyl)piperidin-2-yl)methyl)pyrimidine-2,4-diamine]	100 to 1000		100 to 1000	< 100	1000 to 10000	JAK3 = 160	
Cn1cc(Nc2ncc(Cl)c(NCC3CCOCC3)n2)cn1 [Example 46, 5-chloro-N^2-(1-methyl-1H-pyrazol-4-yl)-N^4-((tetrahydro-2H-pyran-4-yl)methyl)pyrimidine-2,4-diamine]	100 to 1000		100 to 1000	100 to 1000	1000 to 10000		JAK1 = 6
Cn1cc(Nc2ncc(Cl)c(NCC3CCCCC3)n2)cn1 [Example 47, 5-chloro-N^4-(cyclohexylmethyl)-N^2-(1-methyl-1H-pyrazol-4-yl)pyrimidine-2,4-diamine]	100 to 1000		100 to 1000	100 to 1000	1000 to 10000	JAK3 = 5	
Cn1cc(Nc2ncc(Cl)c(NC[C@H]3CCCN3CCO)n2)cn1 [Example 48, (R)-2-(2-((5-chloro-2-(1-methyl-1H-pyrazol-4-ylamino)pyrimidin-4-ylamino)methyl)pyrrolidin-1-yl)ethanol]	100 to 1000		100 to 1000	100 to 1000	1000 to 10000	JAK3 = 52	

Reference: patent US20150005281A1, “PYRIMIDINE-2,4-DIAMINE DERIVATIVES AS KINASE INHIBITORS” (Cellzome Limited, priority 2011, published 2015)
